Here are results for 21 molecules from ChEMBL document CHEMBL3603815, “Exploring new Probenecid-based carbonic anhydrase inhibitors: Synthesis, biological evaluation and docking studies” (Bioorg Med Chem, 2015).

Sequence of Carbonic anhydrase 12 (O43570 whole entry): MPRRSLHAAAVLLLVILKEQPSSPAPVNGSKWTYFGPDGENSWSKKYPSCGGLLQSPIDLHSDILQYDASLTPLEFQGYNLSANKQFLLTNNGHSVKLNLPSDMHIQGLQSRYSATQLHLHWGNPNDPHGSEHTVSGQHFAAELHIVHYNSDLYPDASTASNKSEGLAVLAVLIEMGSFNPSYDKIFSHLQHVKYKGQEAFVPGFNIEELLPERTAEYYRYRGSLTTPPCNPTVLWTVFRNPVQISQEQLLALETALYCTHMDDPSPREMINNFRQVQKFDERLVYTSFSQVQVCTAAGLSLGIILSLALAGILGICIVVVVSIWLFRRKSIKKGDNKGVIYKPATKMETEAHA
Sequence of Carbonic anhydrase 1 (P00915 whole entry): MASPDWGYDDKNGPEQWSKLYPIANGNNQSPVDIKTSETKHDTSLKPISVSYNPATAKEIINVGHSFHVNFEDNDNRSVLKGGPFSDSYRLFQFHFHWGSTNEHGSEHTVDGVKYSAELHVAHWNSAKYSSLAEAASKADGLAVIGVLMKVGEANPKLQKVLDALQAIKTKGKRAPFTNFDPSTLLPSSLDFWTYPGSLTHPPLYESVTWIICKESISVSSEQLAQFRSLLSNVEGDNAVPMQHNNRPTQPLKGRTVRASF

The first experiment has as its target Carbonic anhydrase 1 (Homo sapiens, UniProt P00915). Nature of the experiment: Inhibition of human carbonic anhydrase-1 incubated for 15 mins by stopped-flow CO2 hydration assay.
Regarding `CCCN(CCC)S(=O)(=O)c1ccc(C(=O)N[C@@H](CCSC)C(N)=O)cc1`, the inhibition constant Ki was > 10000 nM.

The next experiment addresses Carbonic anhydrase 9 (Homo sapiens, UniProt Q16790). Nature of the experiment: Inhibition of human carbonic anhydrase-9 incubated for 15 mins by stopped-flow CO2 hydration assay.
The molecule `CCCN(CCC)S(=O)(=O)c1ccc(C(=O)N[C@@H](Cc2ccc(O)cc2)C(N)=O)cc1` returned an inhibition constant Ki of 21 nM.

`CCCN(CCC)S(=O)(=O)c1ccc(C(=O)NCC(N)=O)cc1` gave a Ki of 1.9 nM. Compared with the last molecule, the Ki is about 11-fold lower. `CCCN(CCC)S(=O)(=O)c1ccc(C(=O)N[C@@H](CCC(=O)O)C(=O)O)cc1`: the inhibition constant Ki was determined as 31 nM.

`CCCN(CCC)S(=O)(=O)c1ccc(C(=O)N[C@@H](CCCNC(=N)N)C(N)=O)cc1` had a Ki of 20 nM. Molecule `CCCN(CCC)S(=O)(=O)c1ccc(C(=O)N[C@@H](CO)C(N)=O)cc1` had a Ki of 2.6 nM. In turn, `CCCN(CCC)S(=O)(=O)c1ccc(C(=O)N[C@@H](Cc2ccccc2)C(N)=O)cc1` showed a Ki of 25 nM. Molecule `CCCN(CCC)S(=O)(=O)c1ccc(C(=O)N[C@@H](C)C(N)=O)cc1` showed an inhibition constant (Ki) of 15 nM.

In the case of `CCCN(CCC)S(=O)(=O)c1ccc(C(=O)N[C@@H](CC(C)C)C(N)=O)cc1`, the inhibition constant (Ki) is 150 nM.

Molecule `CCCN(CCC)S(=O)(=O)c1ccc(C(=O)N[C@@H](CO)C(=O)O)cc1` displayed an inhibitory constant (Ki) of 27 nM. The same measure, in the same setting: to `CCCN(CCC)S(=O)(=O)c1ccc(C(=O)N[C@@H](Cc2c[nH]c3ccccc23)C(=O)O)cc1` belongs 25 nM; to `CCCN(CCC)S(=O)(=O)c1ccc(C(=O)N[C@@H](Cc2ccc(O)cc2)C(=O)O)cc1`, 32 nM. On to `CCCN(CCC)S(=O)(=O)c1ccc(C(=O)N[C@@H](CCSC)C(=O)O)cc1`, for which the inhibition constant (Ki) was found to be 61 nM.

For `CCCN(CCC)S(=O)(=O)c1ccc(C(=O)N[C@@H](CS)C(N)=O)cc1`, the inhibition constant (Ki) was 28 nM. `CCCN(CCC)S(=O)(=O)c1ccc(C(=O)N[C@@H](C)C(=O)O)cc1` came in with a Ki of 27 nM.

As to `CCCN(CCC)S(=O)(=O)c1ccc(C(=O)N[C@@H](Cc2ccccc2)C(=O)O)cc1`, affinity was put at a Ki of 210 nM. On to `CCCN(CCC)S(=O)(=O)c1ccc(C(=O)N[C@@H](CCCNC(=N)N)C(=O)O)cc1`, for which the inhibition constant (Ki) came out at 26 nM.

Turning to `CCCN(CCC)S(=O)(=O)c1ccc(C(=O)N[C@@H](CC(C)C)C(=O)O)cc1`, the affinity corresponds to a Ki of 26 nM. For the molecule `CCCN(CCC)S(=O)(=O)c1ccc(C(=O)N[C@@H](CCCCN)C(=O)O)cc1`, the Ki came to 32 nM.

`CCCN(CCC)S(=O)(=O)c1ccc(C(=O)N[C@@H](CCCCN)C(N)=O)cc1` had a Ki of 27 nM.

A further experiment addresses Carbonic anhydrase 12 (Homo sapiens, UniProt O43570). Nature of the experiment: Inhibition of human carbonic anhydrase-12 incubated for 15 mins by stopped-flow CO2 hydration assay.
Consider `CCCN(CCC)S(=O)(=O)c1ccc(C(=O)NCC(=O)O)cc1`, for which the Ki is > 10000 nM.

Usually Ki stands for a dissociation constant, usually derived from enzyme kinetics or from competition with a known ligand.
